The record followed here is ChEMBL document CHEMBL2203036, “Discovery of 1-[2-(2,4-dimethylphenylsulfanyl)phenyl]piperazine (Lu AA21004): a novel multimodal compound for the treatment of major depressive disorder” (J Med Chem, 2011).

Data set [1] addresses T1, 5-hydroxytryptamine receptor 7 (Homo sapiens, UniProt P34969). The data set can be described thus: Antagonist activity at human 5HT7 receptor expressed in HEK-CNG cells assessed as effect on cAMP production by fluorescence based assay. Format: functional, cell-based.
Data set [2] addresses T1, 5-hydroxytryptamine receptor 7. The data set can be described thus: Binding affinity to human 5HT7 receptor.
In another data set the target is Histamine H2 receptor (Homo sapiens, UniProt P25021). The data set is described as follows: Binding affinity to human histamine H2 receptor.
Histamine H2 receptor, sequence (P25021 whole entry): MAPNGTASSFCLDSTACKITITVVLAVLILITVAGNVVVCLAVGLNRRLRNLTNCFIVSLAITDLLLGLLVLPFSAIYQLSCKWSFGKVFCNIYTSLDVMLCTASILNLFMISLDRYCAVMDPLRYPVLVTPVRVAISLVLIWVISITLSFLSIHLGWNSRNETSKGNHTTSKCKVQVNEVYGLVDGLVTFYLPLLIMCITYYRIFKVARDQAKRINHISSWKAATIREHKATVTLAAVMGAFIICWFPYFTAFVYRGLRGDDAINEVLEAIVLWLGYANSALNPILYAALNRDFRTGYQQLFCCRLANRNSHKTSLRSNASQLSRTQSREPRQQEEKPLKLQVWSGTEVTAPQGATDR
Data set [3] addresses Sodium-dependent serotonin transporter (Homo sapiens, UniProt P31645). The data set can be described thus: Binding affinity to human SERT.
In data set [4] the test system is Rattus norvegicus. The data set is described as follows: Hepatic clearance in rat at 1 mg/kg, iv. Format: ADME, organism-based, Liver. Also on record: dose 1 mg/kg, route intravenous. The following applies: in vivo.
Data set [5] deals with Liver microsomes. The data set is described as follows: Intrinsic clearance in rat liver microsomes at 1 uM after 60 mins by LC-MS/MS analysis. The following applies: 1 h. Format: ADME, Microsome.
In data set [6] the test system is Liver microsomes. The data set can be described thus: Intrinsic clearance in human liver microsomes at 1 uM after 60 mins by LC-MS/MS analysis. Format: ADME, Microsome. The conditions noted are these: 1 h. (Microsomes from liver hold many membrane-bound enzymes, among them those of drug oxidation.)
For data set [7], the target named is T2, 5-hydroxytryptamine receptor 3A (Homo sapiens, UniProt P46098).
T2 sequence (P46098 whole entry): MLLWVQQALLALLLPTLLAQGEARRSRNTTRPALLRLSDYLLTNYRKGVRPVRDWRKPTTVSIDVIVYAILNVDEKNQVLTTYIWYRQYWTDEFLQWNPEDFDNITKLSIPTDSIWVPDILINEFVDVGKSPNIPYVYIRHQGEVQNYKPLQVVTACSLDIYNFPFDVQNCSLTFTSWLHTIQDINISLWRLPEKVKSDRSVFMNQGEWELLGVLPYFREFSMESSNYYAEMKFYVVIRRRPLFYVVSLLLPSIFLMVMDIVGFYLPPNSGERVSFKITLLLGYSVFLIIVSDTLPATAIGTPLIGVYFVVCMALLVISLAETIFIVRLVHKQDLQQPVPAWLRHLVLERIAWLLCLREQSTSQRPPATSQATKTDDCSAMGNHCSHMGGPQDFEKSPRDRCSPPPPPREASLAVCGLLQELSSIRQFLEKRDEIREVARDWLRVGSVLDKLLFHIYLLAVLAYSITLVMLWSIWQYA
The data set is described as follows: Displacement of [3H]granisetron from human 5HT3A receptor expressed in HEK293 cells by filter binding assay. Format: cell-based. For orientation: Loss of bound radioactivity is the signal in a displacement assay; it reports binding, not function.

The target of data set [8] is Sodium-dependent noradrenaline transporter (Homo sapiens) (UniProt P23975). The data set is described as follows: Inhibition of human NET at 1 uM.
Sodium-dependent noradrenaline transporter (Homo sapiens), sequence (P23975 whole entry): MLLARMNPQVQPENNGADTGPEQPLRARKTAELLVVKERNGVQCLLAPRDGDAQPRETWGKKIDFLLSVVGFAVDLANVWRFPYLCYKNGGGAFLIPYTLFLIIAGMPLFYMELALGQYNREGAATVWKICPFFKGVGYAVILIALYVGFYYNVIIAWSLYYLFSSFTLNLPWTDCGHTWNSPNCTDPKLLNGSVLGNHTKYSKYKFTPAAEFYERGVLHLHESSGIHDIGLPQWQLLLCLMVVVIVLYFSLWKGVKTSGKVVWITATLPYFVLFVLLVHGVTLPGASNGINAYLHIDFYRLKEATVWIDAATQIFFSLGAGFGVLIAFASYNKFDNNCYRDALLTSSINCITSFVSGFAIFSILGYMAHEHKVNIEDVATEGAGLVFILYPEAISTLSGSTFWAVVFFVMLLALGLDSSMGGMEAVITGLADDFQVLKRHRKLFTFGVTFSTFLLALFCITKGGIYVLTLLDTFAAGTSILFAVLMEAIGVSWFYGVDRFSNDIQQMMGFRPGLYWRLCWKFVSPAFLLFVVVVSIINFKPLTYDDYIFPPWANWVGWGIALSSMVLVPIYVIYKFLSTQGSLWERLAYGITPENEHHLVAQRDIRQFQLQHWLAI
For data set [9], the target named is 5-hydroxytryptamine receptor 1A (Rattus norvegicus) (UniProt P19327). The data set is described as follows: Binding affinity to rat 5HT1A receptor.
5-hydroxytryptamine receptor 1A (Rattus norvegicus), sequence (P19327 whole entry, looked up): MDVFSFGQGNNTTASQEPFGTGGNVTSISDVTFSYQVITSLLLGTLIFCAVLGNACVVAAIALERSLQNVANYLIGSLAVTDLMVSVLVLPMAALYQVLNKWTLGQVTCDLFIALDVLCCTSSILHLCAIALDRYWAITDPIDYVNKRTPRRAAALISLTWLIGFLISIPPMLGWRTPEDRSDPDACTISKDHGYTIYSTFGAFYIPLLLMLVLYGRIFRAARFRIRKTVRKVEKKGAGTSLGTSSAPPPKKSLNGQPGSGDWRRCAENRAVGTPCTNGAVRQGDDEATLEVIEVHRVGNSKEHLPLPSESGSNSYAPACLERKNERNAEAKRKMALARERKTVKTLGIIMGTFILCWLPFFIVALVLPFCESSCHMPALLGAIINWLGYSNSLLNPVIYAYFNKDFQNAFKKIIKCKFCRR
For data set [10], the target named is T3, 5-hydroxytryptamine receptor 1B (Homo sapiens, UniProt P28222). The data set can be described thus: Inhibition of human 5HT1B receptor at 1 uM.
T3 sequence (P28222 whole entry): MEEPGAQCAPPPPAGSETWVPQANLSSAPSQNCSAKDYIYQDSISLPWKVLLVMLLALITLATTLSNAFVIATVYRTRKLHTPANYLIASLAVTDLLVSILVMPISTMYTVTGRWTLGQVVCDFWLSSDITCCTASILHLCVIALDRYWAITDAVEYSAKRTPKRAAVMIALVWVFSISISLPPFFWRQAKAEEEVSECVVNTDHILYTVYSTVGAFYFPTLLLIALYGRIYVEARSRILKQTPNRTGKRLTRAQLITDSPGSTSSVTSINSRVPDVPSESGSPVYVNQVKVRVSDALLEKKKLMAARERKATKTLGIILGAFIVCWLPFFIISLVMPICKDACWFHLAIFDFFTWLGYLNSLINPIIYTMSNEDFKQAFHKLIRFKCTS
The target of data set [11] is 5-hydroxytryptamine receptor 3A (Rattus norvegicus) (UniProt P35563). The data set can be described thus: Agonist activity at rat 5HT3A receptor expressed in xenopus oocytes at 0.1 to 100000 nM by electrophysiological method. The conditions noted are these: Oocyte.
5-hydroxytryptamine receptor 3A (Rattus norvegicus), sequence (P35563 whole entry): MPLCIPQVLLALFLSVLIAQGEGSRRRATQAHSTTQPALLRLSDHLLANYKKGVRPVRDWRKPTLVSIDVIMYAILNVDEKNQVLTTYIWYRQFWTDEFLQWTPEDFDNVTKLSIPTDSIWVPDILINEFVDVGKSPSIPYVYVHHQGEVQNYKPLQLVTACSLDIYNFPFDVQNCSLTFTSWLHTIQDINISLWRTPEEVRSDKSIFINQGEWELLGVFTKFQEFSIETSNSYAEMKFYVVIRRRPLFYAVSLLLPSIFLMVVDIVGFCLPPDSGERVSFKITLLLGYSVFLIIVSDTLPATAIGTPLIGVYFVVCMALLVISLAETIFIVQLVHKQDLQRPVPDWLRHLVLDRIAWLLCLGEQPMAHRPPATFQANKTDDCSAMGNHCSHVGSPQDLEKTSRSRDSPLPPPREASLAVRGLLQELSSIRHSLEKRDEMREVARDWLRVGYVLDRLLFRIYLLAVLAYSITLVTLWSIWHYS
Data set [12] concerns the target T3, 5-hydroxytryptamine receptor 1B. The data set is described as follows: Partial agonist activity at human 5HT1B receptor expressed in CHO cells assessed as [35S]GTPgammaS binding relative to 5HT. (Binding of GTPγS marks nucleotide exchange on a G protein.)
Data set [13] has as its system Rattus norvegicus. The data set is described as follows: Antidepression activity in Harlan rat assessed as increase in extracellular 5HT level in ventral hippocampus region at 2.5 to 10 mg/kg, sc by microdialysis method. The following applies: TDE = time-dependent effect.

Activity calls are given as the source filed them. The rule behind the calls is not given here.

T1 sequence (P34969 whole entry): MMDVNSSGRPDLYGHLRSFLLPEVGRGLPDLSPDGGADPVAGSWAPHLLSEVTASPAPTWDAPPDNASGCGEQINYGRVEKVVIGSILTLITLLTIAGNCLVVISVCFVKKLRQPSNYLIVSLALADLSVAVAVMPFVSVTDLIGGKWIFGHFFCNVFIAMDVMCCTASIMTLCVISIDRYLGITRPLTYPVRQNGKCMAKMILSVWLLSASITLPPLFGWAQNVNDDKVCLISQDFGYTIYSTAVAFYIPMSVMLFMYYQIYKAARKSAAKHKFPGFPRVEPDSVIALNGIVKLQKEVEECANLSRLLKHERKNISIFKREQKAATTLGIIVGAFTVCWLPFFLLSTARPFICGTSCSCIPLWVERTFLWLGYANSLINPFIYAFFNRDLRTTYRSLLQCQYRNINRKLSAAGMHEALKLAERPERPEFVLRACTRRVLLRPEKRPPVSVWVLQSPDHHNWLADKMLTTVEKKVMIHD
Sodium-dependent serotonin transporter, sequence (P31645 whole entry): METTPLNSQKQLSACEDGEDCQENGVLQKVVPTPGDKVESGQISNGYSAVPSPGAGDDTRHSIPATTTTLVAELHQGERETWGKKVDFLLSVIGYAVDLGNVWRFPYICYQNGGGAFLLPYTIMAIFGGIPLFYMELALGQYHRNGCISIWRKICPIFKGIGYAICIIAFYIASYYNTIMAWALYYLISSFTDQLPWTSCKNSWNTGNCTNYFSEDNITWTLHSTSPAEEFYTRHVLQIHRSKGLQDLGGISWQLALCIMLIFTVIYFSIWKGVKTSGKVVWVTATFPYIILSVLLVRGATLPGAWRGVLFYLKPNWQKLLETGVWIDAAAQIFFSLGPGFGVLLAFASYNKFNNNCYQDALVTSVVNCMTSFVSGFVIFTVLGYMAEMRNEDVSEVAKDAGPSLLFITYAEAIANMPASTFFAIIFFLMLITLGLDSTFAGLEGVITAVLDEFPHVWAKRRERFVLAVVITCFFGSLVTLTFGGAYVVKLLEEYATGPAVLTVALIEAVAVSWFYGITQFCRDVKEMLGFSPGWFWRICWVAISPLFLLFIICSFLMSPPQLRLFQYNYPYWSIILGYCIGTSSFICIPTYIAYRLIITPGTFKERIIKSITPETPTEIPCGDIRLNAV

Turning to `Cc1ccc(Sc2ccccc2N2CCNCC2)c(C)c1.Cl`, the Ki in [1] was determined as 450 nM; in data set [2], 19 nM; at Histamine H2 receptor, 180 nM; in [3], 1.6 nM; in data set [7] it was 23 nM; in data set [9], 230 nM. For the same compound, the CLH in the data set with Rattus norvegicus [4] worked out at 118 mL/min/kg; in the data set on Liver microsomes [5], 55 mL/min; with Liver microsomes [6], 0.5 L/min. Besides, the figures for the inhibition in data set [8] and in [10] were 88% and 100%, respectively. Further, the result in data set [11] was inactive. Further, the Efficacy in data set [12] is 55%. For the same compound, the Activity result with Rattus norvegicus [13] was “tde”.

In general, Ki refers to a dissociation constant, usually derived from enzyme kinetics or from competition with a known ligand. As usually defined, the inhibition is the relative decrease from the control value, in per cent.
